Key:
[1] = Absolute bioavailability of drospirenone after oral administration; conditions: female, human, in vivo
[2] = Solubility and chemical stability of the active substances; assay type: physicochemical; conditions: for solubility: water and aqueous buffers at various pH values
Excerpt: To ensure good bioavailability of the compound, it is therefore advantageously provided in a form that promotes rapid dissolution thereof.
This has the added advantage of facilitating a more homogenous distribution of the ethinylestradiol throughout the composition which might otherwise be difficult to obtain because ethinylestradiol is incorporated in extremely small amounts. When ethinylestradiol is provided in micronized form, it preferably has the following particle size distribution as determined under the microscope: 100% of the particles have a diameter of ≦15.0 μm, 99% of the particles have a diameter of ≦12.5 μm, 95% of the particles have a diameter of ≦10.0 μm, and 50% of the particles have a diameter of ≦3.0 μm. Furthermore, no particle is larger than 20 μm, and […] have a diameter of ≧15 μm and ≦20 μm.

[3] = Dissolution of drospirenone from tablets, USP XXIII Paddle Method; assay type: physicochemical; conditions: 900 ml water, 37° C., 50 rpm
Description: Instead of providing the drospirenone in micronized form, it is possible to dissolve it in a suitable solvent, e.g. methanol or ethyl acetate, and spray it onto the surface of inert carrier particles followed by incorporation of the particles containing drospirenone on their surface in the composition.
The rate of dissolution of drospirenone from the tablets prepared in Example 1 is determined by the USP XXIII Paddle Method using a USP Dissolution Test Apparatus 2 including 6 covered glass vessels and 6 paddles. Tablets are placed in 900 ml water at a temperature of 37° C. (±0.5° C.) and stirred at 50 rpm.

[4] = Relative bioavailability of drospirenone and ethinylestradiol from tablets versus oral suspension, open-label crossover study; assay type: in vivo; conditions: female, human, tablet 3 mg drospirenone + 0.03 mg ethinylestradiol, healthy women, serum concentrations, read-out: relative bioavailability from the tablets compared to the oral suspension
Description: 42 healthy women between 18 and 35 years of age were included in an open-label crossover study after their informed consent had been obtained. The aim of the study was to investigate the relative bioavailability of drospirenone and ethinylestradiol from a tablet formulation containing 3 mg drospirenone and 0.03 mg ethinylestradiol with reference to an oral suspension containing 6 mg of drospirenone and 0.06 mg ethinylestradiol per vial.
The bioavailability was determined using serum concentrations of each active agent as parameters. […] It was therefore concluded that both drospirenone and ethinylestradiol are completely released from the tablets in vivo.

SMILES | bioavailability ([1]; oral administration of 2 mg drospirenone, 8 young healthy women) | bioavailability ([1]; oral microcrystalline suspension containing 3.13 mg drospirenone, 6 postmenopausal women) | stability under acid conditions ([2]; acid conditions) | stability under alkaline conditions ([2]; alkaline conditions) | solubility [2] | drospirenone dissolved within 30 minutes ([3]; film-coated tablets, FIG. 3) | drospirenone dissolved within 30 minutes ([3]; tablet cores, FIG. 2) | bioavailability [4]
C[C@]12CCC(=O)C=C1[C@@H]1C[C@@H]1[C@H]1[C@@H]3[C@@H]4C[C@@H]4[C@@]4(CCC(=O)O4)[C@@]3(C)CC[C@@H]12 [drospirenone, 6β,7β;15β,16β-dimethylene-3-oxo-17α-pregn-4-ene-21,17-carbolactone] | 76% | 85% | rearranged to an inactive isomer | hydrolysed | sparingly soluble | more than 70% | more than 70% | 107%
C#C[C@]1(O)CC[C@H]2[C@@H]3CCc4cc(O)ccc4[C@H]3CC[C@@]21C [ethinylestradiol, 17α-ethinylestradiol] |  |  |  |  | sparingly soluble |  |  | 117%

Source: patent US6787531B1, “Pharmaceutical composition for use as a contraceptive” (Schering AG, priority 1999, dated 2004)
